Measurements published in the OligoGym collection.
After the bases stand the sugars from the 5' end (letter, count) and the backbone: PS all phosphorothioate, else s phosphorothioate and o phosphodiester by linkage. Methylation of C is not given here. l = locked nucleic acid (LNA); d = 2'-deoxy (DNA)

Target: SNHG14
Conditions: ASO

AAATATTGCCACCATT (sugars l2 d10 l4, PS)
target mRNA inhibition (Human Neuronal Cell, 0.2 µM): 51%
target mRNA inhibition (Human Neuronal Cell, 1 µM): 63%

AAAATTATTTATACACCATC (sugars ldlllllddddddlldddll, PS)
target mRNA inhibition (Human Neuronal Cell, 7.5 µM): 61%

TCTCTACAACAGTCCCA (sugars l2 d13 l2, PS)
target mRNA inhibition (Human Neuronal Cell, 0.2 µM): 44%
target mRNA inhibition (Human Neuronal Cell, 1 µM): 55%

CAGTTTAAATTCACAC (sugars l3 d10 l3, PS)
target mRNA inhibition (Human Neuronal Cell, 0.2 µM): 34%
target mRNA inhibition (Human Neuronal Cell, 1 µM): 46%

ATCATTCTCAACAATTAA (sugars l5 d8 l5, PS)
target mRNA inhibition (Human Neuronal Cell, 7.5 µM): 48%

GCACATTCTTTCTATAC (sugars l2 d1 l1 d11 l2, PS)
target mRNA inhibition (Human Neuronal Cell, 7.5 µM): 61%

CCAAATAAGCAAACTC (sugars l3 d10 l3, PS)
target mRNA inhibition (Human Neuronal Cell, 0.2 µM): 60%
target mRNA inhibition (Human Neuronal Cell, 1 µM): 39%

TTCACCTAATAGCACCA (sugars l2 d11 l4, PS)
target mRNA inhibition (Human Neuronal Cell, 0.2 µM): 54%
target mRNA inhibition (Human Neuronal Cell, 1 µM): 64%

ATCATTCTCAACAATTA (sugars l5 d6 l2 d2 l2, PS)
target mRNA inhibition (Human Neuronal Cell, 7.5 µM): 31%

TTATAGCCATTCTATCT (sugars l2 d9 l1 d3 l2, PS)
target mRNA inhibition (Human Neuronal Cell, 7.5 µM): 52%

TTTCCAATGAATCTAT (sugars l2 d10 l4, PS)
target mRNA inhibition (Human Neuronal Cell, 0.2 µM): 21%
target mRNA inhibition (Human Neuronal Cell, 1 µM): 36%

GTTTATACCCTTTCCAAT (sugars l2 d11 l1 d2 l2, PS)
target mRNA inhibition (Human Neuronal Cell, 7.5 µM): 67%

TTCTGTATACACCATCC (sugars l1 d13 l3, PS)
target mRNA inhibition (Human Neuronal Cell, 7.5 µM): 59%

CTCCAACATAGATCCTC (sugars l3 d11 l3, PS)
target mRNA inhibition (Human Neuronal Cell, 0.2 µM): 52%
target mRNA inhibition (Human Neuronal Cell, 1 µM): 60%

TTGATTCAATTCCCTTA (sugars ldllddddddddlddll, PS)
target mRNA inhibition (Human Neuronal Cell, 7.5 µM): 62%

TTTATTTCCATTTATTTTC (sugars llddlldddddddldllll, PS)
target mRNA inhibition (Human Neuronal Cell, 7.5 µM): 66%

TTTATACCTTTCTTTAACCC (sugars lddddlddddddddddldll, PS)
target mRNA inhibition (Human Neuronal Cell, 7.5 µM): 63%

TACTAAACATACACATA (sugars l4 d11 l2, PS)
target mRNA inhibition (Human Neuronal Cell, 0.2 µM): 9%
target mRNA inhibition (Human Neuronal Cell, 1 µM): 25%

AAATCTCAACTACCATTTTT (sugars llldldlddddddddddlll, PS)
target mRNA inhibition (Human Neuronal Cell, 7.5 µM): 34%

AGCATTCAACCCTAAT (sugars l4 d10 l2, PS)
target mRNA inhibition (Human Neuronal Cell, 0.2 µM): 52%
target mRNA inhibition (Human Neuronal Cell, 1 µM): 60%

ATCTTTCCATTTATTTCCAT (sugars ldddddlddddddlddddll, PS)
target mRNA inhibition (Human Neuronal Cell, 7.5 µM): 41%

AGTCCTTCCTTTAACCA (sugars l2 d13 l2, PS)
target mRNA inhibition (Human Neuronal Cell, 0.2 µM): 21%
target mRNA inhibition (Human Neuronal Cell, 1 µM): 41%

CCTTTCCAATGAATCTA (sugars l2 d11 l4, PS)
target mRNA inhibition (Human Neuronal Cell, 0.2 µM): 53%
target mRNA inhibition (Human Neuronal Cell, 1 µM): 59%

TTACTCTTAGCAACCT (sugars l4 d10 l2, PS)
target mRNA inhibition (Human Neuronal Cell, 0.2 µM): 58%
target mRNA inhibition (Human Neuronal Cell, 1 µM): 54%

CAACATTATTAACCACCTT (sugars l1 d14 l4, PS)
target mRNA inhibition (Human Neuronal Cell, 7.5 µM): 47%

ATTTTTTTCTTACTATCTTC (sugars lldlddddddddddddldll, PS)
target mRNA inhibition (Human Neuronal Cell, 7.5 µM): 50%

ACTGTTTATACCCTTTCC (sugars l2 d14 l2, PS)
target mRNA inhibition (Human Neuronal Cell, 0.2 µM): 36%
target mRNA inhibition (Human Neuronal Cell, 1 µM): 50%

TCTGTATACACCATCCC (sugars l2 d1 l1 d11 l2, PS)
target mRNA inhibition (Human Neuronal Cell, 7.5 µM): 56%

TCAGCTTTTAACCAGAGT (sugars l2 d13 l3, PS)
target mRNA inhibition (Human Neuronal Cell, 7.5 µM): 79%

TTCCATTTATTTCCATTTAT (sugars ldldllddddddddldddll, PS)
target mRNA inhibition (Human Neuronal Cell, 7.5 µM): 59%

GCAACATTATTAACCACCT (sugars ldlldlddddddlddldll, PS)
target mRNA inhibition (Human Neuronal Cell, 7.5 µM): 44%

CCTAAGCTCCATATTTA (sugars l3 d11 l3, PS)
target mRNA inhibition (Human Neuronal Cell, 0.2 µM): 30%
target mRNA inhibition (Human Neuronal Cell, 1 µM): 47%

TTATAGCCATTCTATCT (sugars l3 d8 l1 d3 l2, PS)
target mRNA inhibition (Human Neuronal Cell, 7.5 µM): 58%

ATCTCATGACCACCTAA (sugars ldldddddddddlldll, PS)
target mRNA inhibition (Human Neuronal Cell, 7.5 µM): 51%

TGAAAATCTCAACTACCAT (sugars llldllddddddlddddll, PS)
target mRNA inhibition (Human Neuronal Cell, 7.5 µM): 55%

GCACATTCTTTCTATACC (sugars ldldldddddddddddll, PS)
target mRNA inhibition (Human Neuronal Cell, 7.5 µM): 61%

ACATCTCATACTTGCTT (sugars l2 d13 l2, PS)
target mRNA inhibition (Human Neuronal Cell, 0.2 µM): 1%
target mRNA inhibition (Human Neuronal Cell, 1 µM): 8%
target mRNA inhibition (Human Neuronal Cell, 5 µM): 7%
target mRNA inhibition (Mouse Primary Neuronal Cell, 0.005 µM): 90.7%

TTCTGTATACACCATCC (sugars l2 d11 l1 d1 l2, PS)
target mRNA inhibition (Human Neuronal Cell, 7.5 µM): 56%

TTGATTCAATTCCCTTA (sugars lldldddddddldldll, PS)
target mRNA inhibition (Human Neuronal Cell, 7.5 µM): 59%

TACTCTGCAATACACCA (sugars l1 d13 l3, PS)
target mRNA inhibition (Human Neuronal Cell, 7.5 µM): 60%

TATACCTTTCTTTAACCCTT (sugars l2 d4 l1 d11 l2, PS)
target mRNA inhibition (Human Neuronal Cell, 7.5 µM): 51%

TCACTGCCATCAATAC (sugars l4 d10 l2, PS)
target mRNA inhibition (Human Neuronal Cell, 0.2 µM): 42%
target mRNA inhibition (Human Neuronal Cell, 1 µM): 45%

GCACATTCTTTCTATACC (sugars l1 d4 l1 d9 l3, PS)
target mRNA inhibition (Human Neuronal Cell, 7.5 µM): 59%

CCCATTTCTAACATTTAC (sugars l3 d12 l3, PS)
target mRNA inhibition (Human Neuronal Cell, 0.2 µM): 50%
target mRNA inhibition (Human Neuronal Cell, 1 µM): 64%

GTTCTACTATACTTTCCTC (sugars l1 d14 l1 d1 l2, PS)
target mRNA inhibition (Human Neuronal Cell, 7.5 µM): 54%

CCATACAGTATATACA (sugars l4 d10 l2, PS)
target mRNA inhibition (Human Neuronal Cell, 0.2 µM): 31%
target mRNA inhibition (Human Neuronal Cell, 1 µM): 56%
